Measurements taken from ChEMBL document CHEMBL1201862, “PubChem BioAssay data set” (2004).
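How tested: cells in 96-well plates exposed to compound for 48 hours at five concentrations. GI50 = concentration required for 50% inhibition of growth.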 The source made the active and inactive calls. No stated cut-off is given here; in the data, active = GI50 up to about 1.1 µM and inactive = higher.

Legend:
Assay in all cases: NCI tumour cell line growth inhibition, 48 h
BT-549 = tested on: BT-549
SW-620 = tested on: SW-620
SNB-19 = tested on: SNB-19
786-0 = tested on: 786-0
SN12C = tested on: SN12C
HCC 2998 = tested on: HCC 2998
CAKI-1 = tested on: CAKI-1
OVCAR-5 = tested on: OVCAR-5
SK-MEL-2 = tested on: SK-MEL-2
NCI-H226 = tested on: NCI-H226
NCI/ADR-RES = tested on: NCI/ADR-RES
HL-60 = tested on: HL-60
U-251 = tested on: U-251
MOLT-4 = tested on: MOLT-4
HOP-92 = tested on: HOP-92
KM12 = tested on: KM12
COLO 205 = tested on: COLO 205
SF-295 = tested on: SF-295
UACC-62 = tested on: UACC-62

SMILES	GI50 (BT-549)	GI50 (SW-620)	GI50 (SNB-19)	GI50 (786-0)	GI50 (SN12C)	GI50 (HCC 2998)	GI50 (CAKI-1)	GI50 (OVCAR-5)	GI50 (SK-MEL-2)	GI50 (NCI-H226)	GI50 (NCI/ADR-RES)	GI50 (HL-60)	GI50 (U-251)	GI50 (MOLT-4)	GI50 (HOP-92)	GI50 (KM12)	GI50 (COLO 205)	GI50 (SF-295)	GI50 (UACC-62)
COC(=O)c1ccc(-n2c(C)nc(=O)c(-c3ccccc3)c2C)cc1	> 100 µM (inactive)	> 100 µM (inactive)	> 100 µM (inactive)	> 100 µM (inactive)	> 100 µM (inactive)	> 100 µM (inactive)	> 100 µM (inactive)	> 100 µM (inactive)	30.7 µM (inactive)	> 100 µM (inactive)	> 100 µM (inactive)	> 100 µM (inactive)	> 100 µM (inactive)	> 100 µM (inactive)	> 100 µM (inactive)	> 100 µM (inactive)	> 100 µM (inactive)	> 100 µM (inactive)	
N#Cc1c(-c2ccc(Cl)cc2)c2c([nH]c1=O)-c1cc([N+](=O)[O-])ccc1CCC2	15.2 µM (inactive)	33.2 µM (inactive)	20.5 µM (inactive)	25.1 µM (inactive)	17.2 µM (inactive)	16.9 µM (inactive)	19.9 µM (inactive)	17.2 µM (inactive)	18 µM (inactive)	17.1 µM (inactive)	20.8 µM (inactive)	20 µM (inactive)	17.5 µM (inactive)	38 µM (inactive)	14.4 µM (inactive)	16.4 µM (inactive)	19.1 µM (inactive)	11.3 µM (inactive)	13.5 µM (inactive)
O=[N+]([O-])c1ccccc1S(=O)(=O)c1cc(Cl)cc2c1NCCC2	26.8 µM (inactive)	> 100 µM (inactive)	65 µM (inactive)	80 µM (inactive)	90.6 µM (inactive)	20.1 µM (inactive)	60.4 µM (inactive)	> 100 µM (inactive)	43.6 µM (inactive)	45.5 µM (inactive)	> 100 µM (inactive)	31.3 µM (inactive)		31.8 µM (inactive)	91.2 µM (inactive)	85.9 µM (inactive)	33.6 µM (inactive)	52.2 µM (inactive)	38.5 µM (inactive)
Cc1cccc(-c2cccc(COCc3cccc(-c4cccc(CO)n4)n3)n2)n1	19.3 µM (inactive)	> 50 µM (inactive)	> 50 µM (inactive)	38.5 µM (inactive)	> 50 µM (inactive)	> 50 µM (inactive)	34.4 µM (inactive)	> 50 µM (inactive)	> 50 µM (inactive)	> 50 µM (inactive)	5.26 µM (inactive)	8.28 µM (inactive)	> 50 µM (inactive)	4.41 µM (inactive)	47.2 µM (inactive)	> 50 µM (inactive)	4.11 µM (inactive)	> 5 µM (inactive)	> 50 µM (inactive)
COc1ccc(COCC[C@H](C)OC2OC(CO[Si](C)(C)C(C)(C)C)C(O)C(O)C2O)cc1 (stereo partly specified)	> 100 µM (inactive)	> 100 µM (inactive)	> 100 µM (inactive)	> 100 µM (inactive)	> 100 µM (inactive)	> 100 µM (inactive)	> 100 µM (inactive)	> 100 µM (inactive)	> 100 µM (inactive)	> 100 µM (inactive)	> 100 µM (inactive)	> 100 µM (inactive)	> 100 µM (inactive)	56.9 µM (inactive)	> 100 µM (inactive)	> 100 µM (inactive)	> 100 µM (inactive)	> 100 µM (inactive)	> 100 µM (inactive)
COC(=O)c1sc2c(c1C(=O)OC)/C(=N/c1ccc(OC)cc1)S/C2=N\c1ccc(OC)cc1	1.54 µM (inactive)	0.224 µM (active)	1.52 µM (inactive)	0.426 µM (active)	0.644 µM (active)	1.69 µM (inactive)	2.05 µM (inactive)	1.73 µM (inactive)	0.624 µM (active)	1.74 µM (inactive)	1.71 µM (inactive)	0.245 µM (active)	0.348 µM (active)	0.248 µM (active)	1.51 µM (inactive)	1.22 µM (inactive)	0.7 µM (active)	1.68 µM (inactive)	1.45 µM (inactive)
COC(=O)c1cc2ccc(OC(C)=O)c(OC(C)=O)c2cn1	> 10 µM (inactive)	3.64 µM (inactive)	> 10 µM (inactive)	18.5 µM (inactive)	3.11 µM (inactive)	20.8 µM (inactive)	20.8 µM (inactive)	18.7 µM (inactive)	18.3 µM (inactive)	22.9 µM (inactive)	6.5 µM (inactive)	2.72 µM (inactive)	3.64 µM (inactive)	4.12 µM (inactive)	17.1 µM (inactive)	18.7 µM (inactive)	18.7 µM (inactive)	4.95 µM (inactive)	2.09 µM (inactive)
